Test results reported in patent publication US20100130613A1, “ADMINISTRATION OF ADAPALENE FOR MODULATING THE EXPRESSION OF CD1d OR IL-10” (GALDERMA RESEARCH & DEVELOPMENT, priority 2007, published 2010).

Tests used:
[1] = tested on: superficial inflammatory lesions; conditions: clinically; Millikan, Int. J. Dermatol. 2000; cited from earlier work
RARγ = molecular target: T1, RARγ (Homo sapiens, UniProt P13631); conditions: background statement; cited from earlier work
T1 sequence (P13631 1-454): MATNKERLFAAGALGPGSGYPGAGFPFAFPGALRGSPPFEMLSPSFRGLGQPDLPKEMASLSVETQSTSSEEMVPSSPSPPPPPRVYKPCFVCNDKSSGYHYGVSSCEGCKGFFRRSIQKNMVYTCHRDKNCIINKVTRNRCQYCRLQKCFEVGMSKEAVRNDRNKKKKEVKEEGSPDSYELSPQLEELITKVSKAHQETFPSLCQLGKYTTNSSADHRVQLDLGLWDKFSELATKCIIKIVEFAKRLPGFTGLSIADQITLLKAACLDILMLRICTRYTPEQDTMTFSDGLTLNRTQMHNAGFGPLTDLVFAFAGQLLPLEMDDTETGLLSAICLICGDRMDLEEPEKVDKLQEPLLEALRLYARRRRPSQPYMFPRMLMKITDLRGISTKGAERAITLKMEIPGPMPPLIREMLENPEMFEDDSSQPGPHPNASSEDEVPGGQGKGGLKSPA

[2] = tested on: cellular retinoic acid binding proteins; conditions: background statement; cited from earlier work
CD1d [3] = test: CD1d expression in healthy human skin explants, immunohistochemistry; type: cell-based; conditions: 24 hours, versus control medium
Procedure: (§1) Healthy human skin: fragments of healthy skin originating from 8 healthy donors were obtained from a mammary plasty (plastic surgery) or a foreskin (infant surgery).
(§2) Fragments (4 mm in diameter) originating from biopsies of inflammatory skin, considered to be an inflammatory model, and of healthy skin, were incubated at 37° C. in a humid atmosphere and in the presence of 5% CO2 for 24 hours in KGM culture medium without hydrocortisone (PromoCell GmbH, Heidelberg, Germany). The culture medium was supplemented with two different concentrations of adapalene (Galderma, Sophia Antipolis, France): 10^−7 M and 10^−6 M. The culture medium alone served as control medium.
(§3) After incubation, the explants were removed from the culture medium and were then frozen in liquid nitrogen for the immunohistochemical study. The culture supernatants were stored at −80° C. for subsequent measurement of protein secretion, by an ELISA assay technique. […]
(§4) The labeling intensity was quantified according to a semi-quantitative scale: none (0), weak (1), medium (2) and strong (3). For each slide, the labeling intensity was determined using a mean of three fields. […] The reading was performed by two independent investigators.
(§5) All the results are expressed as mean +/−SEM. The statistical significance of differences from the values (by comparison to the control medium) was determined by means of the paired Wilcoxon test. […]

IL-10 [4] = test: IL-10 expression in acneic skin explants, immunohistochemistry; type: cell-based, human; conditions: 24 hours, control medium 1.9 (+/−0.4)
Text: (§6) Inflammatory lesions of acne: a skin biopsy (1×1.5 cm) was obtained under local anaesthesia from a superficial inflammatory lesion (papula) on the back in 8 patients suffering from moderate acne and undergoing no topical treatment (for the last two weeks) or general treatment (for the last month, or three months for isotretinoin). The fragments taken were immediately placed in culture.
as §2, with “medium. […]” for “medium.”
as §4, §5

CD1d [5] = test: CD1d expression in acneic skin explants, immunohistochemistry; type: cell-based, human; conditions: 24 hours, control medium 0.9 (+/−0.2), p=0.034
Text: as §6
as §2, with “medium. […]” for “medium.”
as §4, §5

free radicals = conditions: background statement; cited from earlier work
IL-10 [6] = test: IL-10 expression in healthy human skin explants, immunohistochemistry; type: cell-based; conditions: 24 hours
Procedure: as §1, §2, §3, §4, §5

lipoxygenase pathway = conditions: background statement; cited from earlier work
leukotrienes = conditions: background statement; cited from earlier work
IL-10 [7] = test: IL-10 secretion in culture supernatants of healthy human skin explants, ELISA; type: cell-based; conditions: 24 hours, control medium 17.8 pg/ml
Procedure: as §1, §2
After incubation, the explants were removed from the culture medium and were then frozen in liquid nitrogen for the immunohistochemical study. […]
(§7) The concentrations of IL-10 were measured in the culture supernatants using a solid-phase ELISA (Enzyme Linked ImmunoSorbent Assay) sandwich kit, obtained from BioSource (International Inc, Ca, USA).
(§8) The slides were read at 450 nm using an Emax reader (Molecular Devices, CA, USA). […]
as §5

[8] = tested on: polymorphonuclear neutrophils; conditions: background statement; cited from earlier work
IL-10 [9] = test: IL-10 secretion in culture supernatants of acneic skin explants, ELISA; type: cell-based, human; conditions: 24 hours, control medium 5.7 pg/ml (+/−7.1)
Text: as §6
as §2, with “medium. […]” for “medium.”
as §7, §8, §5

RARβ = molecular target: T2, RARβ (Homo sapiens, UniProt P10826); conditions: background statement; cited from earlier work
T2 sequence (P10826 1-455): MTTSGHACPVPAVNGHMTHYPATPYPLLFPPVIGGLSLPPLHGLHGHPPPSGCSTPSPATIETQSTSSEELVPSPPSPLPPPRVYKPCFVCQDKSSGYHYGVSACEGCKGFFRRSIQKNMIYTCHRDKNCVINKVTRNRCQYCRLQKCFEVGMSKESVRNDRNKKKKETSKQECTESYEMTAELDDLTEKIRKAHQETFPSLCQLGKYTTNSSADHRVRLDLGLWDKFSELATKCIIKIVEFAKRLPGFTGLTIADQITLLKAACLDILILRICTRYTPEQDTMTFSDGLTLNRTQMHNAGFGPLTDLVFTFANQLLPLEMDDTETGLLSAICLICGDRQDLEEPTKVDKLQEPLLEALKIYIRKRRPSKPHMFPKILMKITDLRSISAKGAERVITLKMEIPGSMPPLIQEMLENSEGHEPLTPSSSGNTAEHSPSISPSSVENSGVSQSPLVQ

COc1ccc(-c2ccc3cc(C(=O)O)ccc3c2)cc1C12CC3CC(CC(C3)C1)C2 [adapalene, 6-[3-(1-adamantyl)-4-methoxyphenyl]-2-naphthoic acid]
clinical activity on superficial inflammatory lesions [1]: exhibits an activity on superficial inflammatory lesions | binding to RARγ (RARγ): binds selectively | binding to cellular retinoic acid binding proteins [2]: does not, on the other hand, bind | expression of CD1d in the epidermis (labeling intensity) (CD1d [3]; 10^−6 M adapalene, p=0.035): significantly decreases | expression of CD1d in the epidermis (labeling intensity) (CD1d [3]; 10^−7 M adapalene, p=0.023): significantly decreases | intensity of IL-10 expression (scale 0-3, mean +/−SEM) (IL-10 [4]; 10^−6 M adapalene, p=0.0199): 0.6 (+/−0.2) | intensity of IL-10 expression (scale 0-3, mean +/−SEM) (IL-10 [4]; 10^−7 M adapalene, p=0.024): 0.9 (+/−0.2) | expression of CD1d (labeling intensity, scale 0-3, mean +/−SEM) (CD1d [5]; 10^−6 M adapalene): 1.5 (+/−0.5) | expression of CD1d (labeling intensity, scale 0-3, mean +/−SEM) (CD1d [5]; 10^−7 M adapalene): 1.5 (+/−0.5) | production of free radicals (free radicals): inhibits | inhibitory effect on the expression of IL-10 (IL-10 [6]; 10^−6 M adapalene, versus control medium, p=0.016): significant | expression of IL-10 in the epidermis (labeling intensity) (IL-10 [6]; 10^−7 M and 10^−6 M adapalene, dose-dependent): significantly decreases | oxidative metabolism of arachidonic acid via the lipoxygenase pathway (lipoxygenase pathway): inhibits | production of leukotrienes via the lipoxygenase pathway (leukotrienes): inhibits | secretion of IL-10 in supernatants (IL-10 [7]; 10^−6 M adapalene): No modulation | secretion of IL-10 in supernatants (IL-10 [7]; 10^−7 M adapalene): increases the secretion of IL-10 | chemotaxis of polymorphonuclear neutrophils [8]: inhibits | IL-10 level in supernatants (IL-10 [9]; 10^−6 M adapalene): 4.0 pg/mL | IL-10 level in supernatants (IL-10 [9]; 10^−7 M adapalene): 6.1 pg/mL | binding to RARβ (RARβ): binds selectively
